Test [1] deals with bladder smooth muscle strips. As to the kind of experiment: Antimuscarinic activity on bladder smooth muscle strips (carbachol-induced contractions). The format is cell-based, guinea pigs. Particulars: Cavia porcellus, read-out: KB, inhibition of carbachol-induced contractions.
The target of test [2] is T1, human recombinant muscarinic receptor M-3 (Homo sapiens, UniProt P20309).
T1 construct: expressed in transfected cells; host or cells: Sf9 insect cells (membranes)
As to the kind of experiment: biochemical. The format is binding.

T1 sequence (P20309 whole entry): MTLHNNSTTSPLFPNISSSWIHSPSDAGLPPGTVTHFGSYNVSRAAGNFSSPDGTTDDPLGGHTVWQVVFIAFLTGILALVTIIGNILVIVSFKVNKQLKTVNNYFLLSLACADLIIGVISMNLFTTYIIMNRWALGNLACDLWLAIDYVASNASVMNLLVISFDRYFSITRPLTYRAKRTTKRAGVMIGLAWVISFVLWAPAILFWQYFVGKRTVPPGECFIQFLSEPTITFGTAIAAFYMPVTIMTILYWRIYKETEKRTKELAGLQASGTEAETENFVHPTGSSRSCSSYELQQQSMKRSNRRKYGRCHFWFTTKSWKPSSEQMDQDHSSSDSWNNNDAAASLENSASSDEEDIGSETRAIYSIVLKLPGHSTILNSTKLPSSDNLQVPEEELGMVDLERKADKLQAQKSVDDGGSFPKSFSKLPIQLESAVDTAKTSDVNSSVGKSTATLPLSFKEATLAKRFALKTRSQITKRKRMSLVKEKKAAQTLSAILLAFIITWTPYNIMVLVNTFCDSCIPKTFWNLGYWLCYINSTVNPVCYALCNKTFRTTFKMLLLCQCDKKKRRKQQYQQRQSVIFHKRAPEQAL

Consider `O=C(OC1CC2CCC(C1)[N+]21CCCC1)C(O)(c1ccccc1)c1ccccc1` (stereo not drawn) [Trospium, 3α-hydroxy-spiro[1αH,5αH-nortropane-8,1′-pyrrolidinium]chloride benzilate], for which the Kb in test [1] was in the range of 1.5 to 5.5 nM. Moreover, in test [2], the Ki is 0.501 nM.

Regarding `Cc1ccc(O)c([C@H](CCN(C(C)C)C(C)C)c2ccccc2)c1` [Tolterodine], in test [1], the Kb is 1.5 to 5.5 nM.

The term Ki denotes the dissociation constant of the complex between target and ligand, obtained from inhibition or displacement.
